Laboratory results from patent US8975234B2, “Anti-bacterial infection, inflammation, and leukemia composition and use thereof” (priority 2011, dated 2015).

Key:
[1] = system: MRSA 19615; assay: Minimum inhibitory concentration (broth microdilution) and FIC index; assay type: cell-based, Staphylococcus aureus; details: Staphylococcus aureus, MRSA, read-out: Minimum inhibitory concentration
Protocol: (§1) A serial of twofold dilution of the tested antibiotics (oxacillin, erythromycin, ampicillin, kanamycin, levofoxacin, vancomycin and doxycycline) was perform by Broth microdilution method to a final concentration of 2-512 μg/mL. The bacterial overnight culture was collected and re-suspended in the Muller-Hilton (M-H) broth. An aliquot of cell suspension (OD600=0.1) was prepared. The bacterial suspensions were plated in 96-well plate and incubated with test antibiotics at 37° C. in a 5% CO2 incubator (Table 1 to Table 4).
(§2) The […], […] and antagonism between two drugs was evaluated by the following formula:
(§3) [formula] The criteria of fractional inhibitory concentration index: […]

[2] = system: MRSA 18631; assay: as above; assay type: cell-based, Staphylococcus aureus; details: Staphylococcus aureus, MRSA, read-out: Minimum inhibitory concentration
Protocol: as §1, §2, §3

[3] = system: MRSA 18271; assay: as above; assay type: cell-based, Staphylococcus aureus; details: Staphylococcus aureus, MRSA, read-out: Minimum inhibitory concentration
Protocol: as §1, §2, §3

[4] = system: bacteria; assay: Transmission electron microscopy of treated bacteria; assay type: cell-based; details: 40 μg/mL; cultured for 10 minutes; compared with control group
Protocol: Before observed by TEM, the bacteria were cultured overnight on plate, collected and suspended in either 10 mL MHB or 10 mL MHB containing 40 μg/mL Tellimagrandin II. The bacterial solution were diluted to an optical density at 600 nm (OD600) of 0.1, and cultured for 10 minutes or 24 hours. Then, the cells were centrifuged at 10,000 rpm/min and suspended in the fixing fluid, the fixed time can not exceed 24 hours. The sample for TEM was sent to departments of Laboratory Medicine and Clinical Research, Kaohsiung Medical University Hospital (Kaohsiung, Taiwan, ROC).

[5] = system: K-562 cells; assay: DNA ladder test; assay type: cell-based, human; details: 48 hours, different concentrations
Protocol: K-562 cells treated with Tellimagrandin II were collected for electrophoresis to identify any DNA fragmentation.
A total of 3 mL cell solution at the concentration of 1×10^6 K-562 cells per mL was cultured with 6 cm cell culture plates in an incubator supplied with 5% CO2 at 37° C. for 30 minutes so that cells could adapt to the environment. Tellimagrandin II solutions of different concentrations were added by order so that the final concentrations are 0, 20, 30, 40, 50 and 60 μM respectively. The solution was placed in incubator with 5% CO2 at 37° C. for 48 hours before being centrifuged at 2,500 rpm at 4° C. for 5 minutes. After removing the supernatant, it's rinsed by PBS once. Then, cell lysis buffer 100 μL (1% NP-40 dissolved in […], pH 8.0) was added and the solution was shaken at high speed for 10 seconds.
The solution was centrifuged at 3,500 rpm for 5 minutes before 90 μL supernatant was collected and mixed properly with SDS solution 10 μL. RNase A (4 mg/mL) 50 μL was added into the mixed solution then placed in water bath at 56° C. for one hour to remove RNA. Proteinase K (10 mg/mL) 30 μL was then added before another one hour in the water bath at 56° C. to remove protein. […]

[6] = system: LPS-induced NO in RAW264.7 cells; assay: NO production analysis (Griess reagent); assay type: cell-based, mouse; details: before or after LPS, 25 and 50 μM statistically significant
Protocol: Murine macrophage cells were plated in each well on a 12-well plate at a density of about 4×10^5 RAW264.7 cells/mL. After overnight incubation, cells were serum starved in DMEM medium containing 2% Fetal Bovine Serum (FBS) for 3 hours. […] Endogenous NO production, induced by LPS. Cells were treated with Tellimagrandin II at various concentrations (10, 25 and 50 μM) before and after being treated with LPS. For NO production analysis, culture supernatants were brought to 96-well plate and mixed with Griess reagent. Plates were incubated and then the absorbance was measured at 520 nm. Sodium nitrite (NaNO2) solution (0 M˜0.1 M, 8 points) prepared in DMEM was used to generate a standard curve. The nitrite concentrations of samples were determined by interpolation from the standard curve. […] FIG. 10 is framed by a an x-axis labeled the relative order in LPS or Tellimagrandin II treatment and concentrations, and y-axis labeled NO concentration. The control (LPS only) and test groups were compared using a t-test, *p<0.05 (significant) and #p<0.01 (highly significant).

[7] = system: penicillin-binding protein 2a (PBP2a); assay: Western blotting analysis of PBP2a expression; assay type: cell-based, Staphylococcus aureus; details: 40 μg/mL alone
Protocol: Protein samples (15 μg) were mixed with 5× Sample buffer and boiled in 1× Sample buffer for 5 min and then cooled quickly that proteins be denatured to their constituent polypeptide chains. Equal amounts of protein (15 μg) were separated on 10% SDS-PAGE at 17 mA for 2 hours, and transferred to PVDF membrane using wet transfer procedure. The PVDF membrane was blocked for half hour at room temperature in t-BST buffer containing 5% (w/v) non-fat dry milk to prevent nonspecific binding then probed with primary antibodies (Rabbit-anti-penicillin binding protein, dilution 1:5000) in 5% non-fat dry milk for 16˜18 hours at 4° C. Anti-Groel was used as internal controls (dilution 1:80,000; purchased from Sigma). After washing with t-BST three times for 5 minutes each, the membrane was incubated for half hour at room temperature with horseradish peroxidase (HRP)-conjugated secondary antibodies in 5% (w/v) non-fat dry milk. The membrane was washed three times for 5 minutes each, followed by using an enhanced chemiluminescence system and exposed to film.

O=C(OC1O[C@@H]2COC(=O)c3cc(O)c(O)c(O)c3-c3c(cc(O)c(O)c3O)C(=O)O[C@H]2[C@H](OC(=O)c2cc(O)c(O)c(O)c2)[C@H]1OC(=O)c1cc(O)c(O)c(O)c1)c1cc(O)c(O)c(O)c1 (stereo partly shown) [Tellimagrandin II]
MIC [1]: 128 µg/mL | MIC [2]: 128 µg/mL | MIC [3]: 128 µg/mL | phenotype of bacteria in electron microscopy [4]: unsmooth tooth surfaces | DNA fragmentation, DNA ladder electrophoresis [5]: DNA fragmentation occurred | production of LPS-induced NO [6]: decreased the production of LPS-induced NO | expression of penicillin-binding protein 2a (PBP2a) [7]: inhibit the expression
